# Assay results from patent publication US11976083B2, “Inhibitors of peptidylarginine deiminases” (Gilead Sciences, Inc., priority 2020, dated 2024).
# Molecular target: T1, human PAD4 (Homo sapiens, UniProt Q9UM07)
# T1 construct: human PAD4 (NM_012387), A2-P663, was PCR amplified; His-SUMO (N, cleaved yes); made in house; host or cells: E. coli BL21(DE3)
# Assay: In vitro PAD4 BAEE biochemical assay
# Details: BAEE substrate 3 mM, 5 nM PAD4, 2 mM calcium chloride; geometric mean of multiple experiments
# Method in brief: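 Recombinant human PAD4 (5 nM final) with 2 mM CaCl2 was preincubated with compound 30 min at 25 °C in MOPS buffer pH 7.6, then reacted with 3 mM BAEE for 2 h at 25 °C. After EDTA stop, released ammonia was detected by o-phthalaldehyde/DTT fluorescence (ex 405/em 535 nm); IC50 from four-parameter fit, geometric mean.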
# T1 sequence (Q9UM07 2-663): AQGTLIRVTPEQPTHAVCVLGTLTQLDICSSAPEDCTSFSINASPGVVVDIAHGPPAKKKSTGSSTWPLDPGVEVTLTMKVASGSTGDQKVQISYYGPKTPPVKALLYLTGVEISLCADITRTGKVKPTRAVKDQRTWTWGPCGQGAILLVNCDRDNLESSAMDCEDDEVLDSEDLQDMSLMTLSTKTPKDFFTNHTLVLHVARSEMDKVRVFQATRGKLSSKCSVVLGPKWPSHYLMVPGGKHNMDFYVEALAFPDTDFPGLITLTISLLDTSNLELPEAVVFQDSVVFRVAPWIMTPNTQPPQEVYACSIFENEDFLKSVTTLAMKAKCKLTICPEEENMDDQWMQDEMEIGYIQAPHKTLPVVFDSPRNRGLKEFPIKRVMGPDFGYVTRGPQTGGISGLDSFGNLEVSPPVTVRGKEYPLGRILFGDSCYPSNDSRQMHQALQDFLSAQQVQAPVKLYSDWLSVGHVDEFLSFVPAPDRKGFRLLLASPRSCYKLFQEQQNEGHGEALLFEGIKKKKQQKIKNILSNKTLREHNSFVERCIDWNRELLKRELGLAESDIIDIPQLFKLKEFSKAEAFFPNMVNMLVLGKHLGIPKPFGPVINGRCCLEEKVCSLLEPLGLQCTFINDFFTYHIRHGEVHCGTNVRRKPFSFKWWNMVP
row,Structure (SMILES),IC50
1,"COc1cc(C(=O)N[C@H]2CNCC[C@@H]2F)cc2nc(-c3cc4ccc5nc4n3CCCCCc3cnn(C)c3C(=O)N[C@@H]5C)n(C)c12 [Example 181, 2-[(2~{R})-2,6-dimethyl-4-oxo-3,6,7,15,21-pentazatetracyclo[13.5.2.0^{5,9}.0^{18,22}]docosa-1(21),5(9),7,16,18(22),19-hexaen-16-yl]-~{N}-[(3~{S},4~{S})-4-fluoro-3-piperidyl]-7-methoxy-1-methyl-benzimidazole-5-carboxamide]",171 nM
2,"C[C@H]1NC(=O)[C@@H]2C[C@H]2CCCCCn2c(-c3nc4cc(C(=O)N[C@H]5CNCC[C@@H]5F)c(F)cc4n3C3CC3)cc3ccc1nc32 [Example 182, 1-cyclopropyl-6-fluoro-~{N}-[(3~{S},4~{S})-4-fluoro-3-piperidyl]-2-[(2~{R},5~{R},7~{R})-2-methyl-4-oxo-3,13,19-triazatetracyclo[11.5.2.0^{5,7}.0^{16,20}]icosa-1(19),14,16(20),17-tetraen-14-yl]benzimidazole-5-carboxamide]",31 nM
3,"COc1cc(C(=O)N[C@H]2CNCC[C@@H]2F)cc2nc(-c3cc4ccc5nc4n3CCCCCc3nnn(C)c3C(=O)N[C@@H]5C)n(C)c12 [Example 183, 2-[(2~{R})-2,6-dimethyl-4-oxo-3,6,7,8,15,21-hexazatetracyclo[13.5.2.0^{5,9}.0^{18,22}]docosa-1(21),5(9),7,16,18(22),19-hexaen-16-yl]-~{N}-[(3~{S},4~{S})-4-fluoro-3-piperidyl]-7-methoxy-1-methyl-benzimidazole-5-carboxamide]",121 nM
4,"COc1cc(C(=O)N[C@H]2CNCC[C@@H]2F)cc2nc(-c3cc4ccc5nc4n3CCCCC[C@@H]3C[C@H]3C(=O)N[C@@H]5C)n(C)c12 [Example 184, ~{N}-[(3~{S},4~{S})-4-fluoro-3-piperidyl]-7-methoxy-1-methyl-2-[(2~{R},5~{R},7~{R})-2-methyl-4-oxo-3,13,19-triazatetracyclo[11.5.2.0^{5,7}.0^{16,20}]icosa-1(19),14,16(20),17-tetraen-14-yl]benzimidazole-5-carboxamide]",42 nM
5,"COc1cc(C(=O)N[C@H]2CNCC[C@@H]2F)cc2nc(-c3cc4ccc5nc4n3CCCCCc3nn(C)nc3C(=O)N[C@@H]5C)n(C)c12 [Example 185, 2-[(2~{R})-2,7-dimethyl-4-oxo-3,6,7,8,15,21-hexazatetracyclo[13.5.2.0^{5,9}.0^{18,22}]docosa-1(21),5,8,16,18(22),19-hexaen-16-yl]-~{N}-[(3~{S),4~{S})-4-fluoro-3-piperidyl]-7-methoxy-1-methyl-benzimidazole-5-carboxamide]",66 nM
6,"COc1cc(C(=O)N[C@H]2CNCC[C@@H]2F)cc2nc(-c3cc4ccc5nc4n3CC(F)(F)CCCc3ccccc3C(=O)N[C@@H]5C)n(C)c12 [Example 186, 2-[(2~{R})-14,14-difluoro-2-methyl-4-oxo-3,16,22-triazatetracyclo[14.5.2.0^{5,10}.0^{19,23}]tricosa-1(22),5(10),6,8,17,19(23),20-heptaen-17-yl]-~{N}-[(3~{S},4~{S})-4-fluoro-3-piperidyl]-7-methoxy-1-methyl-benzimidazole-5-carboxamide]",139 nM
7,"COc1cc(C(=O)N[C@H]2CNCC[C@@H]2F)cc2nc(-c3cc4ccc5nc4n3CCCCC[C@H]3C[C@]3(C)C(=O)N[C@@H]5C)n(C)c12 [Example 187, 2-[(2~{R},5~{S},7~{S})-2,5-dimethyl-4-oxo-3,13,19-triazatetracyclo[11.5.2.0^{5,7}.0^{16,20}]icosa-1(19),14,16(20),17-tetraen-14-yl]-~ {N}-[(3~{S},4~{S})-4-fluoro-3-piperidyl]-7-methoxy-1-methyl-benzimidazole-5-carboxamide]",109 nM
8,"C[C@H]1NC(=O)[C@@H]2C[C@H]2CCCCCn2c(-c3nc4cc(C(=O)N[C@H]5CNCC[C@@H]5F)cnc4n3C)cc3ccc1nc32 [Example 188, ˜{N}-[(3˜{S},4˜{S})-4-fluoro-3-piperidyl]-3-methyl-2-[(2˜{R},5˜{R},7˜{R})-2-methyl-4-oxo-3,13,19-triazatetracyclo[11.5.2.0^{5,7}.0^{16,20}]icosa-1(19),14,16(20),17-tetraen-14-yl]imidazo[4,5-b]pyridine-6-carboxamide]",49 nM
9,"C[C@H]1NC(=O)[C@@H]2C[C@H]2CCCC(F)(F)Cn2c(-c3nc4cc(C(=O)N[C@H]5CNCC[C@@H]5F)c(F)c(F)c4n3C3CC3)cc3ccc1nc32 [Example 189, 1-cyclopropyl-2-[(2~{R},5~{R},7~{R})-11,11-difluoro-2-methyl-4-oxo-3,13,19-triazatetracyclo[11.5.2.0^{5,7}.0^{16,20}]icosa-1(19),14,16(20),17-tetraen-14-yl]-6,7-difluoro-~{N}-[(3~{S},4~{S})-4-fluoro-3-piperidyl]benzimidazole-5-carboxamide]",33 nM
10,"COc1cc(C(=O)N2CC[C@H]3OCCN[C@H]3C2)cc2nc(-c3cc4ccc5cc4n3CCCCCCC(C)(C)C(=O)N[C@@H]5C)n(C)c12 [Example 190, (11~{R})-17-[5-[(4~{a}~{S},8~{a}~{R})-2,3,4,4~{a},5,7,8,8~{a}-octahydropyrido[4,3-b][1,4]oxazine-6-carbonyl]-7-methoxy-1-methyl-benzimidazol-2-yl]-8,8,11-trimethyl-1,10-diazatricyclo[10.5.2.0^{15,18}]nonadeca-12(19),13,15(18),16-tetraen-9-one]",94 nM
11,"COc1cc(C(=O)N[C@H]2CNCCC2(F)F)cc2nc(-c3cc4ccc5cc4n3CCCCCCC(C)(C)C(=O)N[C@@H]5C)n(C)c12 [Example 191, ~{N}-[(3~{S})-4,4-difluoro-3-piperidyl]-7-methoxy-1-methyl-2-[(11~{R})-8,8,11-trimethyl-9-oxo-1,10-diazatricyclo[10.5.2.0^{15,18}]nonadeca-12(19),13,15(18),16-tetraen-17-yl]benzimidazole-5-carboxamide]",140 nM
12,"COc1cc(C(=O)N2CC[C@@H](C(F)(F)F)[C@@H](N)C2)cc2nc(-c3cc4ccc5nc4n3CCCCCCC(C)(C)C(=O)N[C@@H]5C)n(C)c12 [Example 192, (11~{R})-17-[5-[(3~{R},4~{R})-3-amino-4-(trifluoromethyl)piperidine-1-carbonyl]-7-methoxy-1-methyl-benzimidazol-2-yl]-8,8,11-trimethyl-1,10,19-triazatricyclo[10.5.2.0^{15,18}]nonadeca-12(19),13,15(18),16-tetraen-9-one]",6690 nM
13,"COc1cc(C(=O)N2C[C@H](N)C[C@@H](F)C2)cc2nc(-c3cc4ccc5nc4n3CCCCCCC(C)(C)C(=O)N[C@@H]5C)n(C)c12 [Example 193, (11~{R})-17-[5-[(3~{R},5~{R})-3-amino-5-fluoro-piperidine-1-carbonyl]-7-methoxy-1-methyl-benzimidazol-2-yl]-8,8,11-trimethyl-1,10,19-triazatricyclo[10.5.2.0^{15,18}]nonadeca-12(19),13,15(18),16-tetraen-9-one]",66 nM
14,"C[C@H]1NC(=O)C(C)(C)CCCCCCn2c(-c3nc4cc(C(=O)N5C[C@H](N)C[C@@H](F)C5)c(F)cc4n3C3CC3)cc3ccc1nc32 [Example 194, (11~{R})-17-[5-[(3~{R},5~{R})-3-amino-5-fluoro-piperidine-1-carbonyl]-1-cyclopropyl-6-fluoro-benzimidazol-2-yl]-8,8,11-trimethyl-1,10,19-triazatricyclo[10.5.2.0^{15,18}]nonadeca-12(19),13,15(18),16-tetraen-9-one]",150 nM
15,"COc1cc(C(=O)N2CC[C@@H](O)[C@@H](N)C2)cc2nc(-c3cc4ccc5nc4n3CCCCCCC(C)(C)C(=O)N[C@@H]5C)n(C)c12 [Example 195, (11~{R})-17-[5-[(3~{S},4~{R})-3-amino-4-hydroxy-piperidine-1-carbonyl]-7-methoxy-1-methyl-benzimidazol-2-yl]-8,8,11-trimethyl-1,10,19-triazatricyclo[10.5.2.0^{15,18}]nonadeca-12(19),13,15(18),16-tetraen-9-one]",56 nM
16,"COc1cc(C(=O)N2CC[C@@H](C)[C@@H](N)C2)cc2nc(-c3cc4ccc5nc4n3CCCCCCC(C)(C)C(=O)N[C@@H]5C)n(C)c12 [Example 196, (11~{R})-17-[5-[(3~{R},4~{R})-3-amino-4-methyl-piperidine-1-carbonyl]-7-methoxy-1-methyl-benzimidazol-2-yl]-8,8,11-trimethyl-1,10,19-triazatricyclo[10.5.2.0^{15,18}]nonadeca-12(19),13,15(18),16-tetraen-9-one]",116 nM
17,"COc1cc(C(=O)N[C@H]2CNC[C@@H]2F)cc2nc(-c3cc4ccc5nc4n3CCCCCCC(C)(C)C(=O)N[C@@H]5C)n(C)c12 [Example 197, ~{N}-[(3~{S},4~{S})-4-fluoropyrrolidin-3-yl]-7-methoxy-1-methyl-2-[(11~{R})-8,8,11-trimethyl-9-oxo-1,10,19-triazatricyclo[10.5.2.0^{15,18}]nonadeca-12(19),13,15(18),16-tetraen-17-yl]benzimidazole-5-carboxamide]",6490 nM
18,"COc1cc(C(=O)N[C@@H]2CNC[C@@H]2F)cc2nc(-c3cc4ccc5nc4n3CCCCCCC(C)(C)C(=O)N[C@@H]5C)n(C)c12 [Example 198, ~{N}-[(3~{R},4~{S})-4-fluoropyrrolidin-3-yl]-7-methoxy-1-methyl-2-[(11~{R})-8,8,11-trimethyl-9-oxo-1,10,19-triazatricyclo[10.5.2.0^{15,18}]nonadeca-12(19),13,15(18),16-tetraen-17-yl]benzimidazole-5-carboxamide]",5960 nM
19,"COc1cc(C(=O)N[C@H]2CNC[C@H]2F)cc2nc(-c3cc4ccc5nc4n3CCCCCCC(C)(C)C(=O)N[C@@H]5C)n(C)c12 [Example 199, ~{N}-[(3~{S),4~{R})-4-fluoropyrrolidin-3-yl]-7-methoxy-1-methyl-2-[(11~{R})-8,8,11-trimethyl-9-oxo-1,10,19-triazatricyclo[10.5.2.0^{15,18}]nonadeca-12(19),13,15(18),16-tetraen-17-yl]benzimidazole-5-carboxamide]",18400 nM
